The source of these data is patent US20080318943A1, “Compounds and Uses Thereof - 848” (ASTRAZENECA AB, priority 2007, published 2008).

Each structure is given as a SMILES string.

Experiment [1] deals with T1, GABAA2 receptors (α2, β3, γ2 receptor subunits transfected into Sf9 cells) (Homo sapiens, UniProt P18507+P47869).
T1 construct: host or cells: Sf9 cells (membranes)
Put plainly: GABAA2 Binding Method ([3H]-Flunitrazepam displacement). The settings on record: [3H]-Flunitrazepam ~2 nM, α2β3γ2 Sf9 membranes, 1 hr at 4° C. A digest of the protocol: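 Membranes from Sf9 cells expressing α2β3γ2 GABAA receptors incubated with ~2 nM (final) [3H]-flunitrazepam and test compound 1 h at 4 °C, then filtered on GF/B plates with cold-buffer washes. Flumazenil-defined controls; percent of control, IC50 and Ki calculated.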

The target in a further experiment is T2, GABAA receptor α1β2γ2 (Homo sapiens, UniProt P14867+P18507).
T2 construct: expressed in transfected cells; host or cells: Xenopus laevis oocytes injected with cRNA
T2 sequence (P14867 28-456): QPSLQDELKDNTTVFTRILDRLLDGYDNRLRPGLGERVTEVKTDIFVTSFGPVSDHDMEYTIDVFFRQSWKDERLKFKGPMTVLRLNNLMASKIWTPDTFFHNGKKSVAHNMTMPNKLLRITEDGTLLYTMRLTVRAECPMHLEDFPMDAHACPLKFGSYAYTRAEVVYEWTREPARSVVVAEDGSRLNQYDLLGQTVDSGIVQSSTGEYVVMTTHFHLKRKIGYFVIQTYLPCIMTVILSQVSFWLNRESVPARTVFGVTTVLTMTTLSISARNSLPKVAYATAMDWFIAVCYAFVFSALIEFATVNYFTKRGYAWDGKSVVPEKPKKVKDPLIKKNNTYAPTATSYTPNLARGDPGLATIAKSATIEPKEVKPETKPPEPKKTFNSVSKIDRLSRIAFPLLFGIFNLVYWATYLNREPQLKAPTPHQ
T2 sequence (P47870 25-512 partner limits assumed): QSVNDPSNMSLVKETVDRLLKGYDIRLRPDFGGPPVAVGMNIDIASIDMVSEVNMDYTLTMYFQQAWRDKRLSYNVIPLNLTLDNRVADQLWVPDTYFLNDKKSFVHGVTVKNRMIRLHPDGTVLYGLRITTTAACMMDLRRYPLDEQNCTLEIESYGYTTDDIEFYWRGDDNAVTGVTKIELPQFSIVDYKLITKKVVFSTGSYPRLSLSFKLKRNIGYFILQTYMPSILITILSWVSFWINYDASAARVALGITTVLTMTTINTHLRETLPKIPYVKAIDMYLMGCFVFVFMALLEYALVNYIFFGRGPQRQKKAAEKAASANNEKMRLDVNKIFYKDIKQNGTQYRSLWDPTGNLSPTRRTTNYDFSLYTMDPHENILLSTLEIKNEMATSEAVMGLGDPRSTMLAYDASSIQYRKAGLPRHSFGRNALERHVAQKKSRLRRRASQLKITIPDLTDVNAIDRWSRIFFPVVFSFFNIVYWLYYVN
T2 sequence (P18507 40-475): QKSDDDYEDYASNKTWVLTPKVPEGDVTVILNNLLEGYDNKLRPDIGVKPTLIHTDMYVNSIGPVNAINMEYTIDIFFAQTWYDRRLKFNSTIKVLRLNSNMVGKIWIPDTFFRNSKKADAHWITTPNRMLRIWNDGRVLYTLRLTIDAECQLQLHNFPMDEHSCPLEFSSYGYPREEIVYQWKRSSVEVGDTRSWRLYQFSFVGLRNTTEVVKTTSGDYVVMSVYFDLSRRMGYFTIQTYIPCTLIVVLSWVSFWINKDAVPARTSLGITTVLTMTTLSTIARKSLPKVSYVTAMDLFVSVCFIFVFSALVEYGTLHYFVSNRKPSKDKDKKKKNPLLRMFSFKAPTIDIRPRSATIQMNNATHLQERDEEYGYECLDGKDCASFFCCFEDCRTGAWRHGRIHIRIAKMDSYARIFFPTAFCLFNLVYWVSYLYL
Put plainly: Two-electrode voltage-clamp potentiation of GABA EC10 current in Xenopus oocytes, GABAA1. It counts as cell-based. The note with it: percentage potentiation of GABA EC10 current divided by that of diazepam. A digest of the protocol: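 Human GABAA receptors expressed in Xenopus oocytes by cRNA injection (α:β:γ molar ratio ~1:1:10 for α1β2γ2, 1:1:1 for α2β3γ2), recorded 2-10 days later by two-electrode voltage clamp at −60 mV in ND-96, pH 7.5. Modulator preapplied 30 s before GABA at per-oocyte EC10. Peak-current percent potentiation over GABA alone, normalised to diazepam.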

In a further experiment the target is T3, GABAA receptor α2β3γ2 (Homo sapiens, UniProt P18507+P47869).
T3 construct: expressed in transfected cells; host or cells: Xenopus laevis oocytes injected with cRNA
T3 sequence (P47869 29-451): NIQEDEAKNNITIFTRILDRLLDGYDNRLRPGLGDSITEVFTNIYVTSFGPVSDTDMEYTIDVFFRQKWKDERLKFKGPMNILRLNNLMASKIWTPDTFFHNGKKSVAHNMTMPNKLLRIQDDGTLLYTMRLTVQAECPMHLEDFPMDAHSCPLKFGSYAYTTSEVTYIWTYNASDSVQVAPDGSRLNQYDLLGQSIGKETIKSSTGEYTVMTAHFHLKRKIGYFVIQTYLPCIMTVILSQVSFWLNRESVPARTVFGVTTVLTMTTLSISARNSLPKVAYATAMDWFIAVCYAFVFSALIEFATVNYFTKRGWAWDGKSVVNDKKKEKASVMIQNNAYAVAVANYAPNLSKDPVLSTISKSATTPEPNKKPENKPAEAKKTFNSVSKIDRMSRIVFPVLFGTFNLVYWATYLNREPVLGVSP
T3 sequence (P28472 26-473 partner): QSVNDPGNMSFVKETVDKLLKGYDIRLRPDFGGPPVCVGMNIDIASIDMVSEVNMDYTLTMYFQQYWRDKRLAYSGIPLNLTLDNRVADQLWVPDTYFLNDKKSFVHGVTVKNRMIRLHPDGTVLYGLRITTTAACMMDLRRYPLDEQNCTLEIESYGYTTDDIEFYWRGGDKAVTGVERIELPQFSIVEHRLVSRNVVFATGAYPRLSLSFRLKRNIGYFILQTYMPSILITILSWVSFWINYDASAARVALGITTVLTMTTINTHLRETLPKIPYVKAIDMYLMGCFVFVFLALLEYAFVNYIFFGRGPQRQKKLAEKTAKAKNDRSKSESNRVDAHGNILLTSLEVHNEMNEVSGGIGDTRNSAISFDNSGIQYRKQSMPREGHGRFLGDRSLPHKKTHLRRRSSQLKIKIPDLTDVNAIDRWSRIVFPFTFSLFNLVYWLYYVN
T3 sequence (P18507 40-475): as the sequence (P18507 40-475) above
Description: Two-electrode voltage-clamp potentiation of GABA EC10 current in Xenopus oocytes, GABAA2. The format is cell-based. The note with it: percentage potentiation of GABA EC10 current divided by that of diazepam. As to the method: GABAA receptors were heterologously expressed in Xenopus oocytes by injecting cRNA corresponding to human α1, α2, α3, α5, β2, P3 and γ2 subunits of the GABAA receptor genes. The specific subunit combinations (subtypes) were as follows: α1β2γ2, α2β3γ2, α3β3γ2, and α5β3γ2. The EC10 of GABA is approximated for each cell. Stability of GABA-mediated (EC10) current is established. Modulatory effect of test compound is determined and compared across subtypes. […] Thus, the assay can characterize modulatory effects and determine subtype selectivity of test compounds on major subtypes of GABAA receptors.
Xenopus laevis frogs (Xenopus I, Kalamazoo, Mich.) were anesthetized using 0.15% tricaine. Surgically removed ovarian lobes were teased out in OR2 solution (82 NaCl, 2.5 KCl, 5 HEPES, 1.5 NaH2PO4, 1 MgCl2, 0.1 EDTA, in mM, pH 7.4). The oocytes were defolliculated by incubation in 25 mL OR2 containing 0.2% collagenase 1A (SIGMA) two times for about 60 minutes on a platform shaker and stored in Leibovitz's L-15 medium. Oocytes were injected the following day in 0.5× Leibovitz's L-15 medium containing […] gentamycin, 10 units/ml penicillin, and […] streptomycin.
Capped cRNAs from the linearized vectors containing human α1, β2 and γ2 subunits of the GABAA receptor genes were mixed in ratio of […]. Oocytes were injected with 25-50 nL of mixed RNA with an appx molar ratio for α1, β2, and γ2 as 1:1:10. Oocyte recordings were done 2-10 days after injection. The same methods apply to subtypes derived from α2β3γ2, α3β3γ2, and α5β3γ2, except for 1:1:1 ratio was used for α, β, and γ subunits.
All measurements were done in a medium containing ND-96 (96 NaCl, 2 KCl, 1.8 CaCl2.2H2O, 1 MgCl2.6H2O, 5 HEPES, in mM, pH 7.5). Two-electrode voltage-clamp recording was carried out using OpusXpress amplifier (Axon Instruments, Foster City, Calif.), which allows simultaneous recording from 8 oocytes. Oocytes were impaled with two electrodes of 1-2 MΩ tip resistance when filled with 3M KCl. Recordings were begun when membrane potential became stable at potentials negative to −50-−60 mV. Membrane potential was held at −60 mV. […] The concentration of GABA corresponded to the EC10 value calculated for each oocyte. The modulator pulses started 30 s before the GABA pulse so as to allow preincubation with the modulator. A set of 3 pulses with just GABA without modulator was given prior to the modulator-containing pulses to define the baseline GABA response. Two oocytes per each experiment were dedicated to observe the effect of diazepam on GABA response to ensure the presence of γ2 subunit in the GABAA pentameric complex, which imparts diazepam sensitivity to the complex.
Current amplitude (i) was measured from baseline to peak using Clampfit (Axon Inst., Foster City, Calif.). Potentiation was calculated as percent change from the baseline GABA current flux 100×(imod/icontrol)−1) where imod=current mediated by modulator+GABA and icontrol=current mediated by GABA alone. […] Similarly, a value of −50% potentiation means the presence of modulator caused a 50% decrease in the control current. Various other data shown here were fitted and plotted using GraphPad Prism (GraphPad Software, Inc. San Diego, Calif.). The percentage potentiation was converted to relative potentiation by dividing it with percentage potentiation value obtained from the same assay with diazepam as a control.

T1 sequence (P47869 29-451): as the sequence (P47869 29-451) above
T1 sequence (P28472 26-473 partner): as the sequence (P28472 26-473 partner) above
T1 sequence (P18507 40-475): as the sequence (P18507 40-475) above

For `Nc1c2c(nc3c(-c4nccnc4F)cccc13)CN(C1CCC1)C2=O` [9-Amino-2-cyclobutyl-5-(3-fluoropyrazin-2-yl)-2,3-dihydropyrrolo[3,4-b]quinolin-1-one], the Ki in experiment [1] worked out at 2.17 nM. The “Relative Potentiation for GABAA1” value at GABAA receptor α1β2γ2 is recorded as −0.03. Also, the “Relative Potentiation for GABAA2” value at GABAA receptor α2β3γ2 was 0.14.
Taken in the same sequence, the figures for `COc1ccc(Cl)c(-c2cccc3c(N)c4c(nc23)CN(C2CC2)C4=O)c1` [9-Amino-5-(2-chloro-5-methoxyphenyl)-2-cyclopropyl-2,3-dihydropyrrolo[3,4-b]quinolin-1-one] were 33.2 nM, 0.068 and 0.14.
Taken in the same sequence, the figures for `CCN1Cc2nc3c(-c4cccnc4OC)cccc3c(N)c2C1=O` [Example 19, 9-Amino-2-ethyl-5-(2-methoxypyridin-3-yl)-2,3-dihydropyrrolo[3,4-b]quinolin-1-one] were 24.2 nM, 0.022 and 0.28.
Taken in the same sequence, the figures for `COc1ccc(F)c(-c2c(F)ccc3c(N)c4c(nc23)CN(C2CCC2)C4=O)c1` [9-Amino-2-cyclobutyl-6-fluoro-5-(2-fluoro-5-methoxyphenyl)-2,3-dihydropyrrolo[3,4-b]quinolin-1-one] were 0.333 nM, 0.025 and 0.26.
In the case of `Nc1c2c(nc3c(-c4ccc(F)nc4F)cccc13)CN(C1CCC1)C2=O` [9-Amino-2-cyclobutyl-5-(2,6-difluoropyridin-3-yl)-2,3-dihydropyrrolo[3,4-b]quinolin-1-one], the inhibition constant (Ki) in experiment [1] was determined as 0.732 nM. On GABAA receptor α1β2γ2, the “Relative Potentiation for GABAA1” value was determined as 0.033. The “Relative Potentiation for GABAA2” value at GABAA receptor α2β3γ2 was 0.21.
Taken in the same sequence, the figures for `CCCN1Cc2nc3c(-c4cccnc4OC)cccc3c(N)c2C1=O` [9-amino-5-(2-methoxypyridin-3-yl)-2-propyl-2,3-dihydro-1H-pyrrolo[3,4-b]quinolin-1-one] were 42.1 nM, 0.36 and 0.58.
Compound `COc1ccc(CN2Cc3nc4c(-c5ccc(C)nc5Cl)cccc4c(N)c3C2=O)cc1OC` [Example 23, 9-Amino-5-(2-chloro-6-methylpyridin-3-yl)-2-(3,4-dimethoxybenzyl)-2,3-dihydropyrrolo[3,4-b]quinolin-1-one] yielded an inhibition constant (Ki) in experiment [1] of 4.36 nM. The “Relative Potentiation for GABAA1” value at GABAA receptor α1β2γ2 amounted to 0.11. Further, the “Relative Potentiation for GABAA2” value at GABAA receptor α2β3γ2 is 0.34.
Taken in the same sequence, the figures for `CCCN1Cc2nc3c(-c4ccccc4C#N)cccc3c(N)c2C1=O` [2-(9-amino-1-oxo-2-propyl-2,3-dihydro-1H-pyrrolo[3,4-b]quinolin-5-yl)benzonitrile] were 30.7 nM, 0.15 and 0.21.
Taken in the same sequence, the figures for `COc1ccc(-c2c(F)ccc3c(N)c4c(nc23)CN(C2CCC2)C4=O)c(C)n1` [9-Amino-2-cyclobutyl-6-fluoro-5-(6-methoxy-2-methylpyridin-3-yl)-2,3-dihydropyrrolo[3,4-b]quinolin-1-one] were 1.14 nM, 0.042 and 0.19.
The corresponding values for `COc1ccncc1-c1cccc2c(N)c3c(nc12)CN(C1CCC1)C3=O` [Example 62, 9-Amino-2-cyclobutyl-5-(4-methoxypyridin-3-yl)-2,3-dihydropyrrolo[3,4-b]quinolin-1-one] are 1.84 nM, 0.09 and 0.44.
In experiment [1], `COc1ncccc1-c1cccc2c(N)c3c(nc12)CN([C@H]1C[C@@H](C)C1)C3=O` came in with a Ki of 1.29 nM. For the same compound, the “Relative Potentiation for GABAA1” value at GABAA receptor α1β2γ2 worked out at 0.085. The “Relative Potentiation for GABAA2” value at GABAA receptor α2β3γ2 worked out at 0.51.
The corresponding values for `Cc1ccc(-c2cccc3c(N)c4c(nc23)CN(C2CC2)C4=O)c(F)n1` [9-Amino-2-cyclopropyl-5-(2-fluoro-6-methylpyridin-3-yl)-2,3-dihydropyrrolo[3,4-b]quinolin-1-one] are 43.4 nM, 0 and 0.18.
The corresponding values for `COc1ccc(CN2Cc3nc4c(-c5cccnc5OC)cccc4c(N)c3C2=O)cc1` [Example 3, 9-Amino-2-(4-methoxybenzyl)-5-(2-methoxypyridin-3-yl)-2,3-dihydropyrrolo[3,4-b]quinolin-1-one] are 22 nM, 0.12 and 0.68.
On to `Nc1c2c(nc3c(-c4ccc(N5CCOCC5)nc4)cccc13)CN(C1CCC1)C2=O` [9-Amino-2-cyclobutyl-5-(6-morpholin-4-yl-pyridin-3-yl)-2,3-dihydropyrrolo[3,4-b]quinolin-1-one], for which, in experiment [1], affinity was put at a Ki of 8.81 nM. The “Relative Potentiation for GABAA1” value at GABAA receptor α1β2γ2 is on record as −0.025. Besides, the “Relative Potentiation for GABAA2” value on GABAA receptor α2β3γ2 worked out at 0.12.
Consider `Nc1c2c(nc3c(-c4ncccc4F)cccc13)CN(C1CCC1)C2=O` [9-Amino-2-cyclobutyl-5-(3-fluoropyridin-2-yl)-2,3-dihydropyrrolo[3,4-b]quinolin-1-one], for which the affinity in experiment [1], expressed as Ki, was 4.69 nM. The “Relative Potentiation for GABAA1” value at GABAA receptor α1β2γ2 was 0.017. Besides, on GABAA receptor α2β3γ2, the “Relative Potentiation for GABAA2” value was found to be 0.19.
On to `COc1cccc(-c2cccc3c(N)c4c(nc23)CN(C2CC2)C4=O)c1F` [Example 22, 9-Amino-2-cyclopropyl-5-(2-fluoro-3-methoxyphenyl)-2,3-dihydropyrrolo[3,4-b]quinolin-1-one], for which the inhibitory constant (Ki) in experiment [1] was found to be 18.2 nM. For the same compound, the “Relative Potentiation for GABAA1” value on GABAA receptor α1β2γ2 is recorded as 0.07. On GABAA receptor α2β3γ2, the “Relative Potentiation for GABAA2” value was determined as 0.14.
Turning to `COc1ccc(-c2cccc3c(N)c4c(nc23)CN(C2CCC2)C4=O)c(C)n1` [9-Amino-2-cyclobutyl-5-(6-methoxy-2-methylpyridin-3-yl)-2,3-dihydropyrrolo[3,4-b]quinolin-1-one], the inhibition constant (Ki) in experiment [1] turned out to be 5.03 nM. In addition, the “Relative Potentiation for GABAA1” value on GABAA receptor α1β2γ2 is on record as −0.0033. Also, the “Relative Potentiation for GABAA2” value at GABAA receptor α2β3γ2 was found to be 0.2.
The corresponding values for `COc1cc(C)c(-c2c(F)ccc3c(N)c4c(nc23)CN(C2CCC2)C4=O)cn1` [9-Amino-2-cyclobutyl-6-fluoro-5-(6-methoxy-4-methylpyridin-3-yl)-2,3-dihydropyrrolo[3,4-b]quinolin-1-one] are 3.04 nM, 0.065 and 0.17.
The corresponding values for `COc1cccc(F)c1-c1cccc2c(N)c3c(nc12)CN(C(C)C)C3=O` [9-Amino-5-(2-fluoro-6-methoxyphenyl)-2-isopropyl-2,3-dihydropyrrolo[3,4-b]quinolin-1-one] are 26.8 nM, −0.16 and 0.15.
